Laboratory results published in EP0569598A1, “BENZOXAZINONE DERIVATIVE” (JAPAN TOBACCO INC., priority 1991, dated 1993).

Experiments:
[1] = tested on: neutrophiles from the human peripheral blood; assay: Human neutrophile chemotaxis suppressing activity (fMLP, chemotaxis chamber); assay type: cell-based; conditions: Concentration 12.5 µM, 10-⁷M fMLP, one hour at 37°C
Procedure: The neutrophile fraction (60% percoal fraction having neutrophile purity of 90% or more) was taken from the human peripheral blood by means of percoal density gradient centrifugation at 2300 rpm for 20 minutes.
An intercell having a pore diameter of 5 µm, containing 8 x 10⁵ of neutrophiles and the compound of the present invention adjusted in various concentrations was placed in each well of a chemotaxis chamber (KURABO), in which has been added 1300 µl of a medium containing 10-⁷M of formylmethionyl-leucyl-phenylalanine (fMLP), which is a neutrophile chemotaxis factor. After incubating for one hour at 37°C in an incubator containing 5% carbon dioxide, the number of cells migrating from the upper side of the intercell membrane into the lower side of the membrane in the chamber was counted by the following method. That is, the lower side surface of the intercell membrane was washed with PBS for 4 times and fixed with methanol and dyed with hematoxylin-eosin solution. The membrane was removed from the intercell and placed on a slide, dried in air, followed by sealing with Canada balsam. The cell number was microscopically counted in 5 visual fields. Taking average number of the five fields, the average was employed as the number of migrating cells. The value subtracting the migrating cell number in a control experiment containing no fMLP from the cell number in an experiment containing no the compound of the present invention was regarded as 100, the chemotaxis suppressing activity was determined as the following formula: Neutrophilic chemotaxis suppressing activity (%) [formula] = 100 - A/B x 100 [formula] = 100 - (C - D)/(E-D) x 100 [formula] Where: • A: chemotaxis measured in the experiment containing the compound of the present invention; • B: chemotaxis measured in the experiment not containing the compound of the present invention • C: the number of migrating cells measured in the experiment containing both the compound of the present invention and fMLP. • D: the number of migrating cells in the experiment containing neither the compound of the present invention nor fMLP. • E: the number of migrating cells in the experiment containing only fMLP.

human cathepsin G (HCG) = molecular target: T1, human cathepsin G (HCG) (Homo sapiens, UniProt P08311); assay: HCG inhibitory activity (synthetic substrate, pNA release); assay type: biochemical; conditions: pH 7.5; HCG 50 nM, substrate 0.5 mM; read-out: IC₅₀ value HCG
T1 construct: purchased Cosmo Bio Inc
T1 sequence (P08311 21-244): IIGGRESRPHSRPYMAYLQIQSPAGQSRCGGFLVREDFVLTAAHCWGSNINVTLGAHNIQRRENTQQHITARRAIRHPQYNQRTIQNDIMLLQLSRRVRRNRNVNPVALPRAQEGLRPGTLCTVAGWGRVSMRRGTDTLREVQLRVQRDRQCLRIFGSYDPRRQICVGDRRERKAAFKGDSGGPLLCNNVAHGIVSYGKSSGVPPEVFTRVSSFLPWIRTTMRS
Procedure: (§1) Activities of the Benzoxazine derivatives of the present invention against human leukocyte elastase (HLE), human sputum elastase (HSE), human cathepsin G (HCG), bovine pancreatic α-chmotrypsin (CYT) and bovine pancreatic trypsin (TRY) were measured by the following method.
(§2) A test compound was dissolved in DMSO (for fluorometry) and prepared various concentration of the solution. To each concentration was added 2-fold volume of 0.2M Tris-HCl (pH8.6), thereby obtaining a test solution. Synthetic substrate (Funakoshi, L-1335) was dissolved in DMSO and 2-volume of 0.2M Tris-HCl (pH8.6) was added thereto, thereby obtaining a substrate solution. The reaction was performed using a microplate having 96 wells (Nunk). Six-time reactions were repeated for each concentration. One handred and forty µl of an enzyme solution containing 0.2M Tris-HCl (pH8.6), 30 µl of a test solution and 30 µl of a substrate solution per well of the microplate were respectively pre-incubated at 37°C for 10 minutes. After completion of the incubation, the enzyme solution was mixed with the test sample and incubated for 10 minutes and then the substrate solution was added to perform an enzyme reaction. The absorbance of released P-nitroanilide (PNA) was measured at the wave length of 405 nm by means of a microplate reader (MTP-100; CORONA), thereby determining the substrate decomposition. The rate of the substrate decomposition was shown as an average value of 6 repeated reactions. The inhibitory concentration of a test compound relative to the amount of the substrate decomposition in the reaction mixture without a test compound was regarded as an IC₅₀ value. The final concentration of HLE and a synthesized substrate in the reaction mixture were 5.63 nM and 0.2625 mM, respectively.
a) Enzyme obtaining route HCG was obtained from Cosmo Bio Inc.
The same method as in the measurement of HLE inhibitory activity was used except that a buffer solution (pH 7.5) was used. The final concentration of HCG and synthetic substrate (Funakoshi, L-1010) in a reaction mixture were 50 nM and 0.5 mM, respectively.

[2] = molecular target: T2, bovine pancreatic α-chmotrypsin (CYT) (Bos taurus, UniProt P00766); assay: CYT inhibitory activity (synthetic substrate, pNA release); assay type: biochemical; conditions: pH 8.0; CYT 3.4 nM, substrate 0.273 mM; read-out: IC₅₀ value CYT
T2 construct: bovine pancreatic α-chmotrypsin (CYT); purchased Sigma Co., Ltd
Procedure: as §1, §2
a) Enzyme obtaining route CYT was obtained from Sigma Co., Ltd.
Substantially the same method as used in the measurement of the HLE inhibitory activity was used except that a buffer solution (pH 8.0) was used. The final concentration of CYT and synthetic substrate (Funakoshi, L-1010) in a reaction mixture were 3.4 nM and 0.273 mM, respectively.

IC50 (human cathepsin G (HCG)): > 12500 nM
IC50 [2]: 1400 nM
SMILES: Cc1cccc2nc([C@@H](NC(=O)OCC(c3ccccc3)c3ccccc3)C(C)C)oc(=O)c12 [Compound 1, 2-[1(S)-[(2,2-diphenylethoxy-carbonyl)amino]-2-methylpropyl]-5-methyl-4H-3,1-benzoxazin-4-one]
Chemotaxis ([1]; experiment without compound regarded as 100): 4.7
activity at 12.5 µM ([1]; Homo sapiens, 1 h): 95.3%
